Test results taken from patent US20140155415A1, “BENZ[…] BENZODIOXINE COMPOUNDS THAT INTERACT WITH G[…] FOR THE TREATMENT OF DIABETES” (priority 2011, published 2014).

Tests used:
[1] = molecular target: T1, GK-GKRP (glucokinase / glucokinase regulatory protein) (Homo sapiens, UniProt Q14397); assay: GKRP LC MS/MS Biochemical Assay (LCMS/MS); conditions: formation of 13C-glucose-6-phosphate from 13C-glucose by LC MS/MS, human His-hepatic GK, fructose-6-phosphate
T1 sequence (Q14397 1-625): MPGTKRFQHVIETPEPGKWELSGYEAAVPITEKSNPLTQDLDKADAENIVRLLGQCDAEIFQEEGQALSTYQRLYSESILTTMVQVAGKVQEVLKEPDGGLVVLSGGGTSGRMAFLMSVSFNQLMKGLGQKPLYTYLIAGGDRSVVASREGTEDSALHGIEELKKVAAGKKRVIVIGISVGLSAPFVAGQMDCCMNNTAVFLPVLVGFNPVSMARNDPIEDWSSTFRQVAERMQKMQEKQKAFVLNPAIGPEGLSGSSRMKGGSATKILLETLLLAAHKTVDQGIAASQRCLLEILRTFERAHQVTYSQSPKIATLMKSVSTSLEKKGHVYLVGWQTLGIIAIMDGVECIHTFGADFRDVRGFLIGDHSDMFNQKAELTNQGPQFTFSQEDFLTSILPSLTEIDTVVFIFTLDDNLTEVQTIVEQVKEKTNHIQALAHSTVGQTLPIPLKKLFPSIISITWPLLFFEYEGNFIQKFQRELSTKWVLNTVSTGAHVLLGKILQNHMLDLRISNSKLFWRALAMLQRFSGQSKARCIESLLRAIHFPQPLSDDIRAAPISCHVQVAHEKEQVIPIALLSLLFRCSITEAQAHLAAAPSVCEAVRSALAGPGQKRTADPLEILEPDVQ
Experimental: GKRP LC MS/MS Biochemical Assay (LCMS/MS)
This assay is used to directly measure the formation of ^13C-glucose-6-phosphate from ^13C-glucose by LC MS/MS. Begin by preparing the following solutions: Compound Buffer (CB): 50 mM Tris, pH 7.5/4 mM MgCl2/6% DMSO/fresh 10 mM DTT from 1M frozen stock. Enzyme Buffer (EB): 50 mM Tris, pH 7.5/4 mM MgCl2/6% DMSO/fresh 0.1% BSA/fresh 0.01% Brij-35 (10% BSA and 1% Brij-35 stock). GK (Glucokinase) Working Stock (5×): Dilute human His-hepatic GK to 30 nM in EB buffer. […] Seal the plate and incubate for 30 minutes at room temperature while mixing. After 30 minutes add 10 μl of GK Working Stock (5×). Re-seal the plate and incubate for another 30 minutes at room temperature while mixing. After the second 30 minutes, stop the reaction by the addition of 50 μl of 100% acetonitrile, seal, and mix for 5-10 minutes. Run 10 μl of this sample through the LC MS/MS (API 3200, Applied Biosystems, Carlsbad, Calif.). […]
(§1) In the Examples, the assays are referred to as “LCMS/MS” or “Binding.”

[2] = molecular target: T2, GK-GKRP (interaction between glucokinase and glucokinase regulatory protein) (Homo sapiens, UniProt Q14397); assay: GK-GKRP Binding Assay (Binding), AlphaScreen; conditions: avi-tagged GKRP, GK-fluorescein, AlphaScreen beads, 1 μM sorbitol-6-phosphate; read-out: GK-GKRP IC50 (Binding)
T2 construct: made in house; host or cells: GKRP: baculovirus system
T2 sequence (Q14397 1-625): T1 sequence (Q14397 1-625)
Experimental: GK-GKRP Binding Assay Protocol (Binding)
This assay is used to directly measure the interaction between glucokinase (GK) and glucokinase regulatory protein (GKRP). Begin by preparing the following solutions. Assay Buffer: 20 mM Tris, pH 7.5/0.05% BSA/1 mM DTT/1 μM sorbitol-6-phosphate. […] Combine the following reagents in a white 96-well half area plate. Pipette 14 μl of the diluted avi-tagged GKRP into each well. Add 1 μl of compound to be tested and incubate at room temperature for 20 minutes. After 20 minutes, add 5 μl of assay buffer containing 6 nM GK-fluorescein. […] Incubate in a dark room for 2 hours at room temperature. After 2 hours read the plate using an Envision plate reader (Perkin Elmer, Waltham Mass.).
Recombinant human glucokinase (hepatic) was purified and formulated in 50 mM Tris (pH 7.5), 150 mM NaCl and 20 mM glucose previous to labeling with fluorescein. […] Unreacted dye was removed by extensive dialysis into the final formulation buffer: 25 mM Tris (pH 7.2), 150 mM NaCl, 10% glycerol and 2 mM DTT. The human glucokinase regulatory protein construct was designed with a C-terminal avitag and was expressed in a baculovirus system. Purified GKRP was incubated overnight with recombinant biotin ligase in the presence of D-biotin, ATP and MgCl2. GKRP was isolated from reaction components by chromatography on a Superdex 200 size exclusion column into: 50 mM HEPES, 150 mM NaCl and 5 mM DTT. […] Proteins were quantitated according to their calculated molar extinction coefficients at A280 and were stored at −80° C.
as §1

Compound	EC50 [1] [nM]	IC50 [2] [nM]
Cc1ccc(F)cc1C(NS(=O)(=O)c1ccc2c(c1)OCCCO2)c1cc2ccccc2o1 (racemic) [Example 4, N-(1-benzofuran-2-yl(5-fluoro-2-methylphenyl)methyl)-3,4-dihydro-2H-1,5-benzodioxepine-7-sulfonamide]	460	1400
Cc1cccc(F)c1C(NS(=O)(=O)c1ccc2c(c1)OCCCO2)c1cc2ccccc2o1 (racemic) [Example 5, N-(1-benzofuran-2-yl(2-fluoro-6-methylphenyl)methyl)-3,4-dihydro-2H-1,5-benzodioxepine-7-sulfonamide]	790	1000
Cc1cccc(C)c1C(NS(=O)(=O)c1ccc2c(c1)OCCCO2)c1cc2ccccc2o1 (racemic) [Example 10, N-(1-benzofuran-2-yl(2,6-dimethylphenyl)methyl)-3,4-dihydro-2H-1,5-benzodioxepine-7-sulfonamide]	3800	4100
CCCc1ccccc1C(NS(=O)(=O)c1ccc2c(c1)OCCCO2)c1cc2ccccc2o1 (racemic) [Example 11, N-(1-benzofuran-2-yl(2-propylphenyl)methyl)-3,4-dihydro-2H-1,5-benzodioxepine-7-sulfonamide]	1700	1800
O=S(=O)(NC(c1cccc(O)c1)c1cc2ccccc2o1)c1ccc2c(c1)OCCCO2 (racemic) [Example 13, N-(1-benzofuran-2-yl(3-hydroxyphenyl)methyl)-3,4-dihydro-2H-1,5-benzodioxepine-7-sulfonamide]	1800	2500
Nc1cccc(C(NS(=O)(=O)c2ccc3c(c2)OCCCO3)c2cc3ccccc3o2)c1 (racemic) [Example 14, N-((3-aminophenyl)(1-benzofuran-2-yl)methyl)-3,4-dihydro-2H-1,5-benzodioxepine-7-sulfonamide]	1600	1200
O=S(=O)(NC(c1cc2ccccc2o1)c1ccccc1CO)c1ccc2c(c1)OCCCO2 (racemic) [Example 15, N-(1-benzofuran-2-yl(2-(hydroxymethyl)phenyl)methyl)-3,4-dihydro-2H-1,5-benzodioxepine-7-sulfonamide]	1600	4600
O=S(=O)(NC(c1cc2ccccc2o1)c1ccccc1F)c1ccc2c(c1)OCCCO2 (racemic) [Example 23, N-(1-benzofuran-2-yl(2-fluorophenyl)methyl)-3,4-dihydro-2H-1,5-benzodioxepine-7-sulfonamide]	450	490
O=S(=O)(NC(c1ccsc1)c1cc2ccccc2o1)c1ccc2c(c1)OCCCO2 (racemic) [Example 32, N-(1-benzofuran-2-yl(3-thiophenyl)methyl)-3,4-dihydro-2H-1,5-benzodioxepine-7-sulfonamide]	1400	–
Cc1ccccc1[C@H](NS(=O)(=O)c1ccc2c(c1)OCCCO2)c1cc2ccccc2o1 (single isomer, unassigned) [Example 2 Peak #1]	> 50000	–

The next lines start with the values.

EC50 [1] [nM]	IC50 [2] [nM]	Compound
440	1800	Cc1cc(F)ccc1C(NS(=O)(=O)c1ccc2c(c1)OCCCO2)c1cc2ccccc2o1 (racemic) [Example 3, N-(1-benzofuran-2-yl(4-fluoro-2-methylphenyl)methyl)-3,4-dihydro-2H-1,5-benzodioxepine-7-sulfonamide]
67	220	CCc1ccccc1C(NS(=O)(=O)c1ccc2c(c1)OCCCO2)c1cc2ccccc2o1 (racemic) [Example 6, N-(1-benzofuran-2-yl(2-ethylphenyl)methyl)-3,4-dihydro-2H-1,5-benzodioxepine-7-sulfonamide]
45	98	C=Cc1ccccc1C(NS(=O)(=O)c1ccc2c(c1)OCCCO2)c1cc2ccccc2o1 (racemic) [Example 7, N-(1-benzofuran-2-yl(2-ethenylphenyl)methyl)-3,4-dihydro-2H-1,5-benzodioxepine-7-sulfonamide]
72	47	C#Cc1ccccc1C(NS(=O)(=O)c1ccc2c(c1)OCCCO2)c1cc2ccccc2o1 (racemic) [Example 8, N-(1-benzofuran-2-yl(2-ethynylphenyl)methyl)-3,4-dihydro-2H-1,5-benzodioxepine-7-sulfonamide]
280	1100	CC(C)c1ccccc1C(NS(=O)(=O)c1ccc2c(c1)OCCCO2)c1cc2ccccc2o1 (racemic) [Example 9, N-(1-benzofuran-2-yl(2-(1-methylethyl)phenyl)methyl)-3,4-dihydro-2H-1,5-benzodioxepine-7-sulfonamide]
320	1000	O=S(=O)(NC(c1cc2ccccc2o1)c1ccccc1C(F)(F)F)c1ccc2c(c1)OCCCO2 (racemic) [Example 12, N-(1-benzofuran-2-yl(2-(trifluoromethyl)phenyl)methyl)-3,4-dihydro-2H-1,5-benzodioxepine-7-sulfonamide]
95	170	COc1ccccc1C(NS(=O)(=O)c1ccc2c(c1)OCCCO2)c1cc2ccccc2o1 (racemic) [Example 17, N-(1-benzofuran-2-yl(2-methoxyphenyl)methyl)-3,4-dihydro-2H-1,5-benzodioxepine-7-sulfonamide]
340	970	O=S(=O)(NC(c1cc2ccccc2o1)c1ccccc1OC(F)(F)F)c1ccc2c(c1)OCCCO2 (racemic) [Example 18, N-(1-benzofuran-2-yl(2-(trifluoromethoxy)phenyl)methyl)-3,4-dihydro-2H-1,5-benzodioxepine-7-sulfonamide]
38	160	CSc1ccccc1C(NS(=O)(=O)c1ccc2c(c1)OCCCO2)c1cc2ccccc2o1 (racemic) [Example 19, N-(1-benzofuran-2-yl(2-(methylsulfanyl)phenyl)methyl)-3,4-dihydro-2H-1,5-benzodioxepine-7-sulfonamide]
70	220	O=S(=O)(NC(c1cc2ccccc2o1)c1ccccc1Cl)c1ccc2c(c1)OCCCO2 (racemic) [Example 20, N-(1-benzofuran-2-yl(2-chlorophenyl)methyl)-3,4-dihydro-2H-1,5-benzodioxepine-7-sulfonamide]
76	228	O=S(=O)(NC(c1cc2ccccc2o1)c1ccccc1I)c1ccc2c(c1)OCCCO2 (racemic) [Example 21, N-(1-benzofuran-2-yl(2-iodophenyl)methyl)-3,4-dihydro-2H-1,5-benzodioxepine-7-sulfonamide]
58	150	O=S(=O)(NC(c1cc2ccccc2o1)c1ccccc1Br)c1ccc2c(c1)OCCCO2 (racemic) [Example 22, N-(1-benzofuran-2-yl(2-bromophenyl)methyl)-3,4-dihydro-2H-1,5-benzodioxepine-7-sulfonamide]
43	–	Cc1ccccc1[C@@H](NS(=O)(=O)c1ccc2c(c1)OCCCO2)c1cc2ccccc2o1 (single isomer, unassigned) [Example 2 Peak #2]
